Assay results published in patent publication US20210330744A1, “Methods and Compositions for Treating Neurodegeneration and Fibrosis” (Temple University-Of The Commonwealth System of Higher …, priority 2017, published 2021).

Experiments:
MEFs [1] = test: α-SMA immunofluorescence (myofibroblast differentiation); type: cell-based, mouse; settings: wildtype MEFs, 48 hours
Experimental: For experiments that required adenoviral gene transfer, MEFs were incubated in adenovirus for 24 hours at which time the media was changed. To knockout Mat, MEFs were transduced with adenovirus encoding Cre-recombinase (Ad-Cre) or βgalactosidase (Ad-(βgal) for 24 h and experiments were performed 5 days post-infection in order to ensure sufficient time for protein turnover. For experiments using adenovirus encoding Glyco-High, Glyco-Low, or mito-R-GECO1, cells were incubated for an additional 24 hours prior to the experiment. The following adenoviruses have previously been described: NFAT-cl-GFP, Glyco-High, Glyco-Low, mito-R-GECO1 (De Windt et al., 2000; Kurland et al., 1992; Salabei et al., 2016; Zhao et al., 2011). Glyco-High and Glyco-Low adenoviruses were made and purified by Vector Labs using cDNA for a rat liver PFKFB1 isoform of phosphofructokinase 2 (PFK2)/ fructose-2,6-bisphosphatase (FBP2). […]
MEFs were seeded on coated 35-mm dishes. […] Images were acquired in the red (590ex/617em) and blue (350ex/461em) channels. α-SMA expression was assessed by quantifying fluorescence intensity and the percentage α-SMA positive cells. More than 50 cells per dish were analyzed.

MICU1 = test: Western blot of mtCU components in WT MEFs; type: cell-based, mouse; settings: for MICU1 expression: 12 hours after treatment
Experimental: (§1) Myofibroblast differentiation was induced using 10 ng ml^−1 recombinant mouse Transforming growth factor-β (TGFβ) or 10 μM Angiotensin II (AngII,). In all experiments, FBS was reduced to 1% 24 hours prior to and during treatment with TGFβ or AngII.
(§2) All protein samples were lysed by homogenization in RIPA buffer supplemented with phosphatase inhibitors and protease inhibitors. Samples were sonicated briefly and centrifuged at 5,000 g for 10 minutes. The supernatant was collected and used for further analysis. Protein amount was quantified using the Bradford Protein Assay and equal amounts of protein (10-50 μg) were run by electrophoresis on polyacrylamide Tris-glycine SDS gels. Gels were transferred to PVDF and membranes were blocked for 1 hour in Blocking Buffer followed by incubation with primary antibody overnight at 4° C. Membranes were washed in TBS-T 3 times for 5 minutes each and then incubated with secondary antibody for 1 hour at room temperature. After incubation with fluorescent secondary antibodies, membranes were washed in TB S-T 3 times for 5 minutes each and then imaged on a Licor Odyssey system. The following antibodies were used in the study: MCU (1:1,000), MCUb (1:250,), MICU1 (1:500,), MCUR1 (1:500), EMRE (1:250, Santa Cruz, sc-86337), VDAC (1:1,000), PDHE1α phospho 5293 (1:1,000), PDHE1α (1:1,000,), IDH3A (1:500), α-tubulin (1:1,000), ETC respiratory chain complexes (1:2,500), H3K4me3 (1:2,000), H3K9me3 (1:2,000), H3K27me3 (1:2,000), H3K4me2 (1:2,000), H3K9me2 (1:2,000), H3K27me2 (1:2,000), H3 (1:2000); and secondary antibodies: anti-mouse (1:12,000), anti-rabbit, (1:12,000), and anti-goat (1:12,000).

MEFs [2] = test: ECAR and OCR measurements (Seahorse XF96) in MEFs; type: cell-based, mouse; settings: for increase in glycolysis from baseline: at peak (TGFβ 48 hours, AngII ~12 hours)
Experimental: as §1
A Seahorse Bioscience XF96 extracellular flux analyzer was employed to measure extracellular acidification rates (ECAR) and oxygen consumption rates (OCR). ECAR was measured using the Glycolytic Stress Test Kit and OCR was measured using the Miro Stress Test Kit. To evaluate ECAR, 20,000 MEFs/well were plated in XF media pH 7.4 without supplementation. […] To evaluate OCR, 20,000 MEFs/well were plated in XF media pH 7.4 supplemented with 10 mM glucose and 1 mM sodium pyruvate. […] After each experiment, protein concentration was measured and wells were normalized using the Wave software.

NFATc1 = test: NFAT translocation assay; type: cell-based, mouse; settings: control cells (Ad-βgal), 24 hours
Experimental: MEFs were plated on coated 35-mm dishes and infected with Ad-NFATc1-GFP for 24 hours at which time live-cell images were taken followed by treatment with 10 ng m1^1 TGFP or 10 μM AngII for 24 hours. For live-cell imaging, cells were placed in a 37° C. heated chamber on a Carl Zeiss Axio Observer Z1 fluorescent microscope. Prior to imaging, MEFs were incubated with Hoechst 33342 to demarcate cell nuclei. Images were acquired in the green channel (490ex/525em) and blue channel (350ex/460em). NFAT localization was quantified as the nuclear/cytoplasmic ratio of GFP fluorescence. More than 50 cells per dish were analyzed.

PDH E1α = test: Western blot of phosphorylated PDH; type: cell-based, mouse; settings: MEFs, 0, 24, 48, or 72 h
Experimental: as §2

mtCU = target: T1, mtCU (Mus musculus, UniProt Q3UMR5+Q8VCX5); test: Evaluation of mCa2+ uptake in permeabilized MEFs (Fura-2, Hill fit); type: cell-based
T1 construct: After treating wildtype (WT) MEFs with TGFβ for 12 hours, fibroblasts were permeabilized with digitonin; endogenous in cells; host or cells: wild-type (C57/BL6) mouse embryonic fibroblasts, digitonin-permeabilized, with or without 12 h TGFβ
Experimental: Before permeabilization, MEFs were washed in extracellular-like Ca^2+-free buffer (120 mM NaCl, 5 mM KCl, 1 mM KH2PO4, 0.2 mM MgCl2, 0.1 mM EGTA, 20 mM HEPEs-NaOH, pH 7.4). MEFs (1.5 million) were then transferred to intracellular-like medium (ICM) (120 mM KCl, 10 mM NaCl, 1 mM KH2PO4, 20 mM HEPES-Tris, protease inhibitors, 5 mM succinate, 2 μM thapsigargin, 40 μg ml^−1 digitonin, 10 μM CGP-37157 (NCLX inhibitor), pH 7.2). ICM was cleared with Chelex 100 to remove trace Ca^2+. MEFs were gently stirred and 1 μM Fura-2 was added to monitor extra-mitochondrial Ca^2+. At 20 seconds, JC-1 was added to monitor Δψ. Fluorescence signals were monitored in a temperature controlled (37° C.) multi-wavelength-excitation/dual-wavelength-emission spectrofluorometer (Delta RAM, Photon Technology Int.) using 490-nm excitation (ex)/535-nm emission (em) for the JC-1 monomer, 570-nm ex/595-nm em for the J-aggregate of JC-1, and 340- and 380-nm ex/510-nm em for Fura-2. […]
To quantify actual Ca^2+ content, a standard curve of Ca^2+ binding Fura-2 was generated from serial diluted Ca^2+ standards (0.01-120 μM) in ICM. Fura-2 fluorescence ratio was converted to [Ca^2+] by the following equation: [Ca^2+]=Kd*(R−Rmin)/(Rmax−R)*Sf2/Sb2. (Rmin (ratio in 0-Ca^2+)=1.341; Rmax (ratio at saturation)=27.915; Sf2 (380/510 reading in 0-Ca^2+)=15822.14; Sb2 (380/510 reading with Ca^2+ saturation)=1794.32). […]

MEFs [3] = test: Metabolomic profiling of MEFs (CE-TOFMS, CE-QqQMS); type: cell-based, mouse
Experimental: Cells in a 10 cm dish were washed with 5% (w/w) mannitol (10mL for the first wash, 2 mL for the second wash) and extracted in 800 μL methanol plus 550 μL internal standard solution (Human Metabolome Technologies, HMT). Extracted solution was spun down at 2,300×g at 4° C. for 5 minutes. The supernatant was transferred into centrifugal filter units (HMT) and centrifuged at 9,100×g at 4° C. for ˜3.5 h until no liquid remained in the filter cup. Filtrate was frozen at −80° C. and shipped to HMT for analysis by CE-TOFMS and CE-QqQMS (Boston, Mass.). Filtrate was centrifugally concentrated and resuspended in 50 μl of ultrapure water immediately before the measurement.
Cationic metabolites were analyzed using an Agilent CE-TOFMS system Machine No. 3 and a fused silica capillary (i.d. 50 μm×80 cm) with Cation Buffer Solution as the electrolyte. The sample was injected at a pressure of 50 mbar for 10 seconds. The applied voltage was set at 27 kV. Electrospray ionization-mass spectrometry (ESI-MS) was conducted in the positive ion mode, and the capillary voltage was set at 4,000 V. The spectrometer was scanned from m/z 50 to 1,000.
Anionic metabolites were analyzed using an Agilent Capillary Electrophoresis System equipped with an Agilent 6460 TripleQuad LC/MS Machine No. QqQ3 and a fused silica capillary (i.d. 50 μm×80 cm) with Anion Buffer Solution as the electrolyte. The sample was injected at a pressure of 50 mbar for 25 seconds. The applied voltage was set at 30 kV. ESI-MS was conducted in the positive and negative ion mode, and the capillary voltage was set at 4,000 V for positive and 3, 500 V for negative mode.
Peaks detected in CE-TOFMs analysis were extracted using automatic integration software and those in CE-QqQMS analysis were extracted using automatic integration software in order to obtain peak information including m/z, migration time, and peak area. The peak area was then converted to relative peak area by the following equation: Relative peak area=Metabolite Peak Area/(Internal Standard Peak Area x Normalization Factor). The peaks were annotated based on the migration times in CE and m/z values determined by TOFMS. Putative metabolites were then assigned from HMT metabolite database on the basis of m/z and migration time. All metabolite concentrations were calculated by normalizing the peak area of each metabolite with respect to the area of the internal standard and by using standard curves, which were obtained by three-point calibrations. A heat map was generated using ClustVis. Unit variance was applied to rows. Rows were clustered using Manhattan distance and average linkage.

H3K27me2 [4] = test: Western blot of methylated histone 3 lysine residues; type: cell-based, mouse; settings: 0, 12 or 24 h treatment
Experimental: as §2

5-methylcytosine (5-mC) = test: Global DNA methylation ELISA; type: cell-based, mouse; settings: MEFs
Experimental: To extract genomic DNA, cells were collected and washed with PBS followed by 2 h incubation at 60° C. in DNA isolation buffer (0.5% SDS, 100 mM NaCl, 50 mM Tris pH 8, 3 mM EDTA, 0.1 mg/mL proteinase K). DNA was extracted using chloroform followed by ethanol precipitation and dissolved in double-distilled water. DNA methylation was quantified using the MethylFlash™ Methylated DNA Quantification Kit. 100 nanograms of input DNA was used per reaction. Absorbance at 450-nm was measured using a Tecan Infinite F50 microplate reader.

H3K27me2 [5] = test: H3K27me2 ChIP-qPCR at Postn and Pdgfra loci; type: cell-based, mouse; settings: control cells (Ad-βgal), 12 hours
Experimental: ChIP was performed using the ChIP-IT High Sensitivity. Cells were fixed, lysed and sonicated for 30 minutes (30 seconds on, 30 seconds off) leading to chromatin fragments between 200 and 1200 base pairs. DNA-bound protein was immunoprecipitated using 2 μg anti-H3K27me2 or IgG. Following IP, cross-links were reversed, protein was removed, and DNA was purified. qPCR was performed with equal amounts of H3K27me2-immunoprecipitated sample, IgG-immunoprecipitated sample, and input sample. Values were normalized to input measurements and fold enrichment was calculated. qPCR primers (Table 4) were designed to target gene loci regions flanking or nearby myofibroblast transcription factor predicted binding sites according to Genomatrix-MatInspector Software analysis.

T1 sequence (Q3UMR5 50-350): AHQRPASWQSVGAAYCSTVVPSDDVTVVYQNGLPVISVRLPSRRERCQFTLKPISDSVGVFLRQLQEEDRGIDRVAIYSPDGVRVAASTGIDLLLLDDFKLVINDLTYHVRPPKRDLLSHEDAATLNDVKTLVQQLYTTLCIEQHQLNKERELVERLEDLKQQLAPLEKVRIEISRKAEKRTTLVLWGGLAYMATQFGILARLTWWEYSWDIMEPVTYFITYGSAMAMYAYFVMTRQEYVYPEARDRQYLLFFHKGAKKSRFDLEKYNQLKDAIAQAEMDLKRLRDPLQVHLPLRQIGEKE
T1 sequence (Q8VCX5 34-477): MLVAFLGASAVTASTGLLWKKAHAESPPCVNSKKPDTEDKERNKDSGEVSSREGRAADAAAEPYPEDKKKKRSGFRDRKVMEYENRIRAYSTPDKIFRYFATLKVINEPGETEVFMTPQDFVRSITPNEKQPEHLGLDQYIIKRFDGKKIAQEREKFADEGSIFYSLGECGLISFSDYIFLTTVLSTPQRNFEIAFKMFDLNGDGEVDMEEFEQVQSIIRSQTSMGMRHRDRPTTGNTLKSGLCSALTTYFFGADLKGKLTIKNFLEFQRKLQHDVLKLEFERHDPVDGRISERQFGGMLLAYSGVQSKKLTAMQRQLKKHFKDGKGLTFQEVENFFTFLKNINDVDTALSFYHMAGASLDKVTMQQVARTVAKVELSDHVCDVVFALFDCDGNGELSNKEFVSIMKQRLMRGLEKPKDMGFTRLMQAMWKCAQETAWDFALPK
T1 sequence (Q9DB10 48-107 partner): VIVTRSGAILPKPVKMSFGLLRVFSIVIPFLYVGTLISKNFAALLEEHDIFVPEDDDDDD
T1 sequence (Q8CD10 23-432 partner): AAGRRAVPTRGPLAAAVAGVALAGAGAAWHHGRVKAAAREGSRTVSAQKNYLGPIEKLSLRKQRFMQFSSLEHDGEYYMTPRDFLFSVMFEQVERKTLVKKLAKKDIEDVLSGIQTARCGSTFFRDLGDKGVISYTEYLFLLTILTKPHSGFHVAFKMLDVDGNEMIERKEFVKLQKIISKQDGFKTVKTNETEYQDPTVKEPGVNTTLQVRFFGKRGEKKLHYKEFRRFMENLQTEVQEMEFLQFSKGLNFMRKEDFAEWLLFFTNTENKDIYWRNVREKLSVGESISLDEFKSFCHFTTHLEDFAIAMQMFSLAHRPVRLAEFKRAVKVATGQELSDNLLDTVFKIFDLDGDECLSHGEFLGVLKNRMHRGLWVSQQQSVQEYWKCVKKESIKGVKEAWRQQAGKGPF

| Compound | percentage of α-SMA positive cells (MEFs [1]) | MICU1 expression (MICU1) | basal respiration (MEFs [2]) | increase in glycolysis from baseline (MEFs [2]) [%] | nuclear translocation of NFATc1 (NFATc1) | ratio of p-PDH E1α/PDH (PDH E1α) | Hill coefficient of mCa2+ uptake dose response curve (mtCU; WT MEFs treated 12 hours, control cells 4.29) | mCa2+ uptake (mtCU; following delivery of ~0.5-2 μM [Ca2+], 12 hours treatment) | MICU1/MCU ratio (MICU1) | increase in basal respiration from baseline (MEFs [2]; peaking 48 hours after treatment) [%] | α-ketoglutarate (αKG) (MEFs [3]; 12 h after treatment) | F-1,6-BP (MEFs [3]; 12 h post-treatment) | citrate levels (MEFs [3]; 12 h post-treatment) | pyruvate (MEFs [3]; control MEFs 12 h post-treatment, from 1000 at baseline) [pmol/million cells] | glutamine (Gln) and glutamate (Glu) levels (MEFs [3]; control cells) | increase in αKG (MEFs [3]; treated fibroblasts) [fold] | dimethylation of H3K27 (H3K27me2) (H3K27me2 [4]) | global DNA methylation (5-methylcytosine (5-mC)) | H3K27me2 enrichment at the Postn and Pdgfra loci (H3K27me2 [5]) |
| --- | --- | --- | --- | --- | --- | --- | --- | --- | --- | --- | --- | --- | --- | --- | --- | --- | --- | --- | --- |
| COC(=O)CCC(=O)C(=O)OC [DM-αKG, dimethyl-αKG] | increased the percentage of α-SMA positive cells to the same extent as 48 hours of TGFβ treatment |  |  |  |  |  |  |  |  |  |  |  |  |  |  |  |  |  |  |
| Angiotensin II (DRVYIHPF; Angiotensin-2; UniProt P01019 25-32, looked up) [AngII, pro-fibrotic agonist] |  | similarly large increase | slight decrease | 45 | induced nuclear translocation of NFATc1 | increased |  |  |  |  |  |  |  |  |  |  |  |  |  |
| TGFβ: recombinant mouse Transforming growth factor-β, pro-fibrotic agonist |  | dramatic increase |  | > 400 | induced nuclear translocation of NFATc1 | increased | 10.27 | decrease | rapidly increased | ~135 | increased | significantly increased | significantly reduced | 1600 | decreased | ~2 | progressive decrease | Slight, but non-significant, decreases | lost |
